Assay results as given in ChEMBL document CHEMBL2069166, “β-Lactones Inhibit N-acylethanolamine Acid Amidase by S-Acylation of the Catalytic N-Terminal Cysteine” (ACS Med Chem Lett, 2012).
The source made the active and inactive calls. No cut-off for these calls is given here.

Tests used:
[1] = biological target: T1, N-acylethanolamine-hydrolyzing acid amidase (Homo sapiens, UniProt Q02083); test: Inhibition of human recombinant His6-tagged NAAA expressed in HEK293 cells using 10-cis-heptadecenoylethanolamide as substrate after 30 mins by UPLC/MS analysis
T1 sequence (Q02083 whole entry): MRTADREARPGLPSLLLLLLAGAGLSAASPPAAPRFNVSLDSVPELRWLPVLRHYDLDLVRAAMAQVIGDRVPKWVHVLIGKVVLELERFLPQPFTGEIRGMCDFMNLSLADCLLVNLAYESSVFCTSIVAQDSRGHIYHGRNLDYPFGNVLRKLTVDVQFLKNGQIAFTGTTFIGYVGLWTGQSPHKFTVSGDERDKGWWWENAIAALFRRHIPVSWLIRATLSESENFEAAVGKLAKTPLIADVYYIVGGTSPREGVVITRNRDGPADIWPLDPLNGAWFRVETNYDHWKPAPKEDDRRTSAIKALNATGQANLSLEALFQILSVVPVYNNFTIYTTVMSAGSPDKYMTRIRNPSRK

[2] = biological target: T2, Fatty-acid amide hydrolase 1 (Rattus norvegicus) (UniProt P97612); test: Inhibition of FAAH in rat brain homogenate using [3H]anandamide as substrate up to 30 uM after 30 mins by liquid scintillation counting; assay type: tissue-based
T2 sequence (whole entry): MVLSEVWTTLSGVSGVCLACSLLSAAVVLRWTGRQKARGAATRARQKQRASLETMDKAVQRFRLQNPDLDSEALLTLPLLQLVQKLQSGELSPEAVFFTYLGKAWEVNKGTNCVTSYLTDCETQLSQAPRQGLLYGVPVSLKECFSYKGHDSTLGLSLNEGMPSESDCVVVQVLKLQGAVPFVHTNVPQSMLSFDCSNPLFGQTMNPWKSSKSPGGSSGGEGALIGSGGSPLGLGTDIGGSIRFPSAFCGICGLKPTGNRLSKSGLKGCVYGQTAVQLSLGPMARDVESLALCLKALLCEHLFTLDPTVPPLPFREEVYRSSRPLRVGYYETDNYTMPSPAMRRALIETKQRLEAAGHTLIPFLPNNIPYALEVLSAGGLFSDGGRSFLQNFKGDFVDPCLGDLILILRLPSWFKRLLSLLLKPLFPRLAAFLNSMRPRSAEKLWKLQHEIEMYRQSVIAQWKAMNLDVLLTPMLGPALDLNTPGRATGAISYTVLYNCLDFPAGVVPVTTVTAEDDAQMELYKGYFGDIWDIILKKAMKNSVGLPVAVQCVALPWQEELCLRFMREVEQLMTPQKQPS

[3] = biological target: T3, Acid ceramidase (Homo sapiens) (UniProt Q13510); test: Inhibition of human acid ceramidase expressed in HEK293 cells up to 30 uM using N-lauroyl- ceramide substrate by UPLC/MS analysis; assay type: cell-based
T3 sequence (whole entry): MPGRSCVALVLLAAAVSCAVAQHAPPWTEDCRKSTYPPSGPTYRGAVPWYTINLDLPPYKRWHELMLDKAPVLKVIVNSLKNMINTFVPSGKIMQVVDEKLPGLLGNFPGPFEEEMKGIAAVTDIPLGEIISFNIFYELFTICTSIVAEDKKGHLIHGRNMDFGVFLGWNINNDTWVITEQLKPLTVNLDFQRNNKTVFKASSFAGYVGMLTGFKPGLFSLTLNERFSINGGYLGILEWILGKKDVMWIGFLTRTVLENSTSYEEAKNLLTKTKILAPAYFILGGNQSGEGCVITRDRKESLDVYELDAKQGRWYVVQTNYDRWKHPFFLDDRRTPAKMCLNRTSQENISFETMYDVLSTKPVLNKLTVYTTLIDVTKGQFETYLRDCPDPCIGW

[4] = biological target: T4, N-acylethanolamine-hydrolyzing acid amidase (Homo sapiens) (UniProt Q02083); settings: HEK293, 10 to 30 nM
T4 sequence (whole entry): T1 sequence (Q02083 whole entry)

[5] = biological target: T4, N-acylethanolamine-hydrolyzing acid amidase (Homo sapiens); settings: HEK293, 100 nM
[6] = biological target: T4, N-acylethanolamine-hydrolyzing acid amidase (Homo sapiens); test: Binding affinity to human recombinant His6-tagged NAAA expressed in HEK293 cells assessed as formation of peptide adduct by MS/MS […] analysis; assay type: cell-based

SMILES	IC50 [1]	inhibition [2]	inhibition [3]	inhibition [4]	inhibition [5]	Activity [6]
C[C@@H]1OC(=O)[C@@H]1NC(=O)OCCCCCc1ccccc1	7.3 nM	inactive	inactive	Active	Active	
C[C@@H]1OC(=O)[C@@H]1NC(=O)CCCCCCc1ccccc1	314 nM					Active
